The subject of experiment [1] is U87MG tumors. As to the kind of experiment: Human U87MG glioblastoma xenograft tumor model. The format is in vivo, female nude mice (BALB/cA nu/nu). The note with it: 21 days; for decrease of mean tumor volume (TGI): Day 21, vs vehicle. As to the method:
In a pilot study, the efficacy of compounds disclosed herein was evaluated in a standard murine model of tumorigenesis. Human tumor cells were generated with human glioblastoma cells (U87MG cells, ATCC) and were grown as subcutaneous tumors in 6-7 week old female nude mice (BALB/cA nu/nu, Shanghai SLAC Laboratory Animal, Co.) (n=10 for vehicle group, n=8 for each dosing group). When tumors reached a volume of 100-200 mm^3, animals were randomly divided into vehicle control (2% HPMC+1% Tween-80 in water) and compound groups. Subsequent administration of compound by oral gavage (10-100 mpk/dose, dissolved in purified water or 2% HPMC+1% Tween-80 in water) begins anywhere from day 0 to day 15 post tumor cell challenge and generally continues with once a day for the duration of the experiment.
(§1) Progression of tumor growth is assessed by tumor volumes and recorded as a function of time. The long (L) and short (W) axes of the subcutaneous tumors were measured with calipers twice weekly, and the tumor volume (TV) calculated as (L×W^2)/2). TGI was calculated from the difference between the median tumor volumes of vehicle-treated and drug-treated mice, expressed as a percentage of the median tumor volume of the vehicle-treated control group, by the following relation:
(§2) Initial statistical analysis is done by repeated measures analysis of variance (RMANOVA). Followed by Scheffe psot hoc testing for multiple comparisons. Vehicle alone (2% HPMC+1% Tween-80, or the like) is the negative control. Compounds disclosed herein were generally active at or less than 100 mpk.

Experiment [2] deals with MKN45 tumors. In words: Human MKN45 gastric adenocarcinoma xenograft tumor model. In kind it is in vivo, female nude mice (BALB/cA nu/nu). The note with it: for decrease of mean tumor volume (TGI): Day 18, vs vehicle. The procedure: Xenografts were also generated with human gastric tumor cells (MKN45 cells, ATCC) and were grown as subcutaneous tumors in 6-7 week old female nude mice (BALB/cA nu/nu, Shanghai SLAC Laboratory Animal, Co.) (n=10 for vehicle group, n=8 for each dosing group). When tumors reached a volume of 60-150 mm^3, animals were randomly divided into vehicle control (2% HPMC+1% Tween-80 in water) and compound groups. Subsequent administration of compound by oral gavage (10-60 mpk/dose, dissolved in purified water or 2% HPMC+1% Tween-80 in water) begins anywhere from day 0 to day 15 post tumor cell challenge and generally continues with once a day for the duration of the experiment.
as §1, §2
On the technique in general: Xenograft models place foreign cells or tissue in a host animal.

The structures appear in SMILES notation. Counter-ions that a name gives are not always drawn.

In the case of `COc1ccc2c(Oc3ccc(NC(=O)c4c(C)n(C[C@@H](C)OC(=O)CN)n(-c5ccccc5)c4=O)cc3F)ccnc2c1` [Example 53, (R)-1-(4-(3-fluoro-4-(7-methoxyquinolin-4-yloxy)phenylcarbamoyl)-5-methyl-3-oxo-2-phenyl-2,3-dihydropyrazol-1-yl)propan-2-yl 2-aminoacetate hydrochloride], the “decrease of mean tumor volume (TGI)” value came out at 47% in experiment [1] (10 mg/kg p.o. QD), 76% in experiment [1] (30 mg/kg p.o. QD) and 99% in experiment [1] (100 mg/kg p.o. QD). In experiment [1] (all doses: 10, 30 and 100 mg/kg p.o. QD), the “inhibition of growth of U87MG tumors” value is reported as “statistically significant, dose-dependent inhibition”.
Consider `Cc1c(C(=O)Nc2ccc(Oc3ccnc4cc(OCC5(OC(=O)CN)CC5)ccc34)c(F)c2)c(=O)n(-c2ccccc2)n1C` [Example 72, 1-((4-(4-(2,3-dimethyl-5-oxo-1-phenyl-2,5-dihydro-1H-pyrazole-4-carboxamido)-2-fluorophenoxy)quinolin-7-yloxy)methyl)cyclopropyl 2-aminoacetate hydrochloride], for which the “decrease of mean tumor volume (TGI)” value in experiment [2] (10 mg/kg p.o. QD, 18 days) was found to be 29%; in experiment [2] (30 mg/kg p.o. QD, 18 days), 62%; in experiment [2] (60 mg/kg p.o. QD (dosed from days 0-10 and days 13-18)) it was 87%. For the same compound, in experiment [2] (all doses: 10, 30 and 60 mg/kg p.o. QD, 18 days), the “inhibition of growth of MKN45 tumors” value is listed as “statistically significant, dose-dependent inhibition”.

Values taken from patent US8232294B2, “Amino ester derivatives, sailts thereof and methods of use” (Sunshine Lake Pharma Co., Ltd., priority 2009, dated 2012).
